Target: Human LDHA (Homo sapiens (Human), UniProt P00338)
Experiment: human LDHA primary biochemical assay
Settings: biochemical LDHA inhibitory activity, assay of Example 1; activity level classes defined in nM
Description: This example describes a human LDHA primary biochemical assay employed in the characterization of a compound of formula (I) in an embodiment of the invention.
Test compounds were placed in a Greiner Bio-One (Monroe, N.C.) 1536-well black solid bottom assay plate. 200 millimolar (mM) Tris HCl, pH 7.4, 100 micromolar (μM) EDTA and 0.01% TWEEN-20™, final concentration, was used as the assay buffer. The LDHA reagent was 2 nanomolar (nM) Human LDHA (Meridian Life Science, Inc., Memphis, Tenn.), final concentration, in assay buffer. The substrate reagent was 0.06 mM NADH and 0.2 mM sodium pyruvate, final concentration, in assay buffer. The resazurin/diaphorase coupling reagent was 0.037 mM resazurin and 0.133 milligrams per milliliter (mg/mL) diaphorase, final concentration, in assay buffer. The inhibition of LDHA activity was measured by fluorescence emission.

Compared with `CC(C)c1ccc(-c2cncc(-c3nn(-c4nc(C(=O)O)cs4)c(CC4CC4)c3Cc3ccc(S(N)(=O)=O)c(F)c3)c2)cc1` [Compound 210, 2-[5-(cyclopropylmethyl)-4-[(3-fluoro-4-sulfamoylphenyl)methyl]-3-[5-(4-isopropylphenyl)pyridin-3-yl]pyrazol-1-yl]-1,3-thiazole-4-carboxylic acid], `CC(C)c1ccc(-c2cccc(-c3nn(-c4nc(C(=O)O)cs4)c(CC4CC4)c3Cc3ccc(S(N)(=O)=O)c(F)c3)n2)cc1` [Compound 211, 2-[5-(cyclopropylmethyl)-4-[(3-fluoro-4-sulfamoylphenyl)methyl]-3-[6-(4-isopropylphenyl)pyridin-2-yl]pyrazol-1-yl]-1,3-thiazole-4-carboxylic acid] is higher in IC50: < 100 nM for the first, 100 to 1000 nM for the second. The first is the more potent here.

First: NS(=O)(=O)c1ccc(Cc2c(-c3ccc(F)c(-c4ccc(C5CC5)c(F)c4)c3)nn(-c3nc(C(=O)O)cs3)c2CC2CC2)cc1F [Compound 212, 2-{3-[3-(4-cyclopropyl-3-fluorophenyl)-4-fluorophenyl]-5-(cyclopropylmethyl)-4-[(3-fluoro-4-sulfamoylphenyl)methyl]pyrazol-1-yl}-1,3-thiazole-4-carboxylic acid]
Second: Cc1cc(-c2cc(-c3nn(-c4nc(C(=O)O)cs4)c(CC4CC4)c3Cc3ccc(S(N)(=O)=O)c(F)c3)ccc2F)ccc1C(C)C [Compound 213, 2-[5-(cyclopropylmethyl)-3-[4-fluoro-3-(4-isopropyl-3-methylphenyl)phenyl]-4-[(3-fluoro-4-sulfamoylphenyl)methyl]pyrazol-1-yl]-1,3-thiazole-4-carboxylic acid]
The IC50 of the first is higher: 100 to 1000 nM for the first, < 100 nM for the second.

`Cc1ncc(-c2cccc(-c3nn(-c4nc(C(=O)O)cs4)c(CC4CC4)c3Cc3ccc(S(N)(=O)=O)c(F)c3)c2)cn1` [Compound 214, 2-[5-(cyclopropylmethyl)-4-[(3-fluoro-4-sulfamoylphenyl)methyl]-3-[3-(2-methylpyrimidin-5-yl)phenyl]pyrazol-1-yl]-1,3-thiazole-4-carboxylic acid] and `Cc1cnc(-c2cccc(-c3nn(-c4nc(C(=O)O)cs4)c(CC4CC4)c3Cc3ccc(S(N)(=O)=O)c(F)c3)c2)nc1` [Compound 217] cannot be ordered by IC50: < 100 nM for the first, < 100 nM for the second.

First: CC(C)c1cnc(-c2cccc(-c3nn(-c4nc(C(=O)O)cs4)c(CC4CC4)c3Cc3ccc(S(N)(=O)=O)c(F)c3)c2)s1 [Compound 215, 2-[5-(cyclopropylmethyl)-4-[(3-fluoro-4-sulfamoylphenyl)methyl]-3-[3-(5-isopropyl-1,3-thiazol-2-yl)phenyl]pyrazol-1-yl]-1,3-thiazole-4-carboxylic acid]
Second: CC(C)c1ccc(-c2cccc(-c3nn(-c4nc(C(=O)O)cs4)c(CC4CC4)c3Cc3ccc(S(N)(=O)=O)c(F)c3)c2)cc1F [Compound 230, 2-(5-(cyclopropylmethyl)-3-(3′-fluoro-4′-isopropyl-[1,1′-biphenyl]-3-yl)-4-(3-fluoro-4-sulfamoylbenzyl)-1H-pyrazol-1-yl)thiazole-4-carboxylic acid]
The IC50 of the first is lower: < 100 nM for the first, 100 to 1000 nM for the second.

Compared with `NS(=O)(=O)c1ccc(Cc2c(-c3cccc(-c4ccc(C(F)(F)F)cc4)c3)nn(-c3nc(C(=O)O)cs3)c2CC2CC2)cc1F` [Compound 219, 2-(5-(cyclopropylmethyl)-4-(3-fluoro-4-sulfamoylbenzyl)-3-(4′-(trifluoromethyl)-[1,1′-biphenyl]-3-yl)-1H-pyrazol-1-yl)thiazole-4-carboxylic acid], `NS(=O)(=O)c1ccc(Cc2c(-c3cccc(-c4ccc(C(F)(F)C(F)(F)F)cc4)c3)nn(-c3nc(C(=O)O)cs3)c2CC2CC2)cc1F` [Compound 224, 2-(5-(cyclopropylmethyl)-4-(3-fluoro-4-sulfamoylbenzyl)-3-(4′-(perfluoroethyl)-[1,1′-biphenyl]-3-yl)-1H-pyrazol-1-yl)thiazole-4-carboxylic acid] is higher in IC50: < 100 nM for the first, 100 to 1000 nM for the second.

`NS(=O)(=O)c1ccc(Cc2c(-c3cccc(-c4ccc5c(c4)CCC5)c3)nn(-c3nc(C(=O)O)cs3)c2CC2CC2)cc1F` [Compound 220, 2-(5-(cyclopropylmethyl)-3-(3-(2,3-dihydro-1H-inden-5-yl)phenyl)-4-(3-fluoro-4-sulfamoylbenzyl)-1H-pyrazol-1-yl)thiazole-4-carboxylic acid] and `Cc1cc(-c2cccc(-c3nn(-c4nc(C(=O)O)cs4)c(CC4CC4)c3Cc3ccc(S(N)(=O)=O)c(F)c3)c2)ccc1O` [Compound 228, 2-(5-(cyclopropylmethyl)-4-(3-fluoro-4-sulfamoylbenzyl)-3-(4′-hydroxy-3′-methyl-[1,1′-biphenyl]-3-yl)-1H-pyrazol-1-yl)thiazole-4-carboxylic acid] cannot be ordered by IC50: < 100 nM for the first, < 100 nM for the second.

`NS(=O)(=O)c1ccc(Cc2c(-c3cccc(-c4ccc(C5CC5)cc4)c3)nn(-c3nc(C(=O)O)cs3)c2CC2CC2)cc1F` [Compound 222, 2-(3-(4′-cyclopropyl-[1,1′-biphenyl]-3-yl)-5-(cyclopropylmethyl)-4-(3-fluoro-4-sulfamoylbenzyl)-1H-pyrazol-1-yl)thiazole-4-carboxylic acid] and `CC(C)Cc1ccc(-c2cccc(-c3nn(-c4nc(C(=O)O)cs4)c(CC4CC4)c3Cc3ccc(S(N)(=O)=O)c(F)c3)c2)cc1` [Compound 226, 2-(5-(cyclopropylmethyl)-4-(3-fluoro-4-sulfamoylbenzyl)-3-(4′-isobutyl-[1,1′-biphenyl]-3-yl)-1H-pyrazol-1-yl)thiazole-4-carboxylic acid] fall in the same range of IC50: 100 to 1000 nM for the first, 100 to 1000 nM for the second.

`CCc1cc(-c2cc(-c3nn(-c4nc(C(=O)O)cs4)c(CC4CC4)c3Cc3ccc(S(N)(=O)=O)c(F)c3)ccc2F)ccc1OC` [Compound 223, 2-(5-(cyclopropylmethyl)-3-(3′-ethyl-6-fluoro-4′-methoxy-[1,1′-biphenyl]-3-yl)-4-(3-fluoro-4-sulfamoylbenzyl)-1H-pyrazol-1-yl)thiazole-4-carboxylic acid] and `CC(C)Cc1ccc(-c2cc(-c3nn(-c4nc(C(=O)O)cs4)c(CC4CC4)c3Cc3ccc(S(N)(=O)=O)c(F)c3)ccc2F)cc1` [Compound 227, 2-(5-(cyclopropylmethyl)-3-(6-fluoro-4′-isobutyl-[1,1′-biphenyl]-3-yl)-4-(3-fluoro-4-sulfamoylbenzyl)-1H-pyrazol-1-yl)thiazole-4-carboxylic acid] fall in the same range of IC50: 100 to 1000 nM for the first, 100 to 1000 nM for the second.

Compared with `NS(=O)(=O)c1ccc(Cc2c(-c3ccc(F)c(-c4ccc(C(F)(F)C(F)(F)F)cc4)c3)nn(-c3nc(C(=O)O)cs3)c2CC2CC2)cc1F` [Compound 225, 2-(5-(cyclopropylmethyl)-3-(6-fluoro-4′-(perfluoroethyl)-[1,1′-biphenyl]-3-yl)-4-(3-fluoro-4-sulfamoylbenzyl)-1H-pyrazol-1-yl)thiazole-4-carboxylic acid], `NS(=O)(=O)c1ccc(Cc2c(-c3cccc(-c4ccc(O)c(F)c4)c3)nn(-c3nc(C(=O)O)cs3)c2CC2CC2)cc1F` [Compound 229, 2-(5-(cyclopropylmethyl)-3-(3′-fluoro-4′-hydroxy-[1,1′-biphenyl]-3-yl)-4-(3-fluoro-4-sulfamoylbenzyl)-1H-pyrazol-1-yl)thiazole-4-carboxylic acid] is lower in IC50: 100 to 1000 nM for the first, < 100 nM for the second.

Compared with `Cc1ccc(C#Cc2cccc(-c3nn(-c4nc(C(=O)O)cs4)c(CC4CC4)c3Cc3ccc(S(N)(=O)=O)c(F)c3)n2)s1` [Compound 231, 2-(5-(cyclopropylmethyl)-4-(3-fluoro-4-sulfamoylbenzyl)-3-(6-((5-methylthiophen-2-yl)ethynyl)pyridin-2-yl)-1H-pyrazol-1-yl)thiazole-4-carboxylic acid], `Cc1ccc(C#Cc2ccc(-c3nn(-c4nc(C(=O)O)cs4)c(CC4CC4)c3Cc3ccc(S(N)(=O)=O)c(F)c3)s2)s1` [Compound 233, 2-(5-(cyclopropylmethyl)-4-(3-fluoro-4-sulfamoylbenzyl)-3-(5-((5-methylthiophen-2-yl)ethynyl)thiophen-2-yl)-1H-pyrazol-1-yl)thiazole-4-carboxylic acid] is higher in IC50: < 100 nM for the first, 100 to 1000 nM for the second. The first is the more potent here.

`Cc1ccc(C#Cc2cccc(-c3nn(-c4nc(C(=O)O)cs4)c(CCC4CC4)c3Cc3ccc(S(N)(=O)=O)c(F)c3)c2)o1` [Compound 232, 2-(5-(2-cyclopropylethyl)-4-(3-fluoro-4-sulfamoylbenzyl)-3-(3-((5-methylfuran-2-yl)ethynyl)phenyl)-1H-pyrazol-1-yl)thiazole-4-carboxylic acid] and `Cc1cnc(C#Cc2cccc(-c3nn(-c4nc(C(=O)O)cs4)c(CCC4CC4)c3Cc3ccc(S(N)(=O)=O)c(F)c3)c2)s1` [Compound 234, 2-(5-(2-cyclopropylethyl)-4-(3-fluoro-4-sulfamoylbenzyl)-3-(3-((5-methylthiazol-2-yl)ethynyl)phenyl)-1H-pyrazol-1-yl)thiazole-4-carboxylic acid] cannot be ordered by IC50: < 100 nM for the first, < 100 nM for the second.

`Cc1ncc(C#Cc2cccc(-c3nn(-c4nc(C(=O)O)cs4)c(CCC4CC4)c3Cc3ccc(S(N)(=O)=O)c(F)c3)c2)s1` [Compound 235, 2-(5-(2-cyclopropylethyl)-4-(3-fluoro-4-sulfamoylbenzyl)-3-(3-((2-methylthiazol-5-yl)ethynyl)phenyl)-1H-pyrazol-1-yl)thiazole-4-carboxylic acid] and `Cc1nc(C#Cc2cccc(-c3nn(-c4nc(C(=O)O)cs4)c(CC4CC4)c3Cc3ccc(S(N)(=O)=O)c(F)c3)c2)cs1` [Compound 236, 2-(5-(cyclopropylmethyl)-4-(3-fluoro-4-sulfamoylbenzyl)-3-(3-((2-methylthiazol-4-yl)ethynyl)phenyl)-1H-pyrazol-1-yl)thiazole-4-carboxylic acid] cannot be ordered by IC50: < 100 nM for the first, < 100 nM for the second.

Work on `Cc1ccc(C#Cc2csc(-c3nn(-c4nc(C(=O)O)cs4)c(CC4CC4)c3Cc3ccc(S(N)(=O)=O)c(F)c3)c2)s1` [Compound 237, 2-(5-(cyclopropylmethyl)-4-(3-fluoro-4-sulfamoylbenzyl)-3-(4-((5-methylthiophen-2-yl)ethynyl)thiophen-2-yl)-1H-pyrazol-1-yl)thiazole-4-carboxylic acid] yielded an IC50 of 100 to 1000 nM.
